Results taken from patent publication EP0313984A1, “Substituted azolyl methyl carbinols and pharmaceutical compositions containing them” (BAYER AG, priority 1987, dated 1989).
Converted amounts (≈) assume the structure as drawn. Each block holds one compound with its values, some of them ahead of it.

Legend:
[1] = tested on: Dermatophyten, Schimmelpilze, Hefen; assay: Antimycotic in-vitro activity, serial dilution test (overall comparison); type: cell-based; settings: compared in words with known compounds (A) and (B)
Experimental: (§1) Die in-vitro-Prüfungen wurden im Reihenverdünnungstest mit Keiminokula von durchschnittlich 5 x 10³ bis 10⁴ Keimen/ml Substrat durchgeführt. Als Nährmedium dienten • a) für Dermatophyten und Schimmelpilze: Sabouraud's milieu d'epreuve • b) für Hefen: Fleischextrakt-Traubenzucker-Bouillon.
(§2) Die Bebrütungstemperatur betrug 28 °C bis 37 °C, die Bebrütungsdauer lag bei 24 bis 96 Stunden bei Hefen und 96 Stunden bei Dermatophyten und Schimmelpilzen.

[2] = tested on: Trichophyton mentagr.; assay: Antimycotic in-vitro activity, serial dilution test (MIC); type: cell-based, Trichophyton mentagrophytes; settings: inoculum 5 x 10³ to 10⁴ Keime/ml, Sabouraud's milieu d'epreuve, 28 °C to 37 °C, 96 h, read-out: MHK-Werte Trichophyton mentagr.
Experimental: as §1, §2

[3] = tested on: Candida albicans; assay: as above; type: cell-based; settings: inoculum 5 x 10³ to 10⁴ Keime/ml, Fleischextrakt-Traubenzucker-Bouillon, 28 °C to 37 °C, 24 to 96 h, read-out: MHK-Werte Candida albicans
Experimental: as §1, §2

[4] = tested on: Aspergillus fumigatus; assay: as above; type: cell-based; settings: inoculum 5 x 10³ to 10⁴ Keime/ml, Sabouraud's milieu d'epreuve, 28 °C to 37 °C, 96 h, read-out: MHK-Werte Aspergillus fumigatus
Experimental: as §1, §2

[5] = tested on: Torulopsis glabrata; assay: as above; type: cell-based; settings: Nakaseomyces glabratus, inoculum 5 x 10³ to 10⁴ Keime/ml, Fleischextrakt-Traubenzucker-Bouillon, 28 °C to 37 °C, 24 to 96 h, read-out: MHK-Werte Torulopsis glabrata
Experimental: as §1, §2

[6] = tested on: Microsporum canis; assay: as above; type: cell-based; settings: inoculum 5 x 10³ to 10⁴ Keime/ml, Sabouraud's milieu d'epreuve, 28 °C to 37 °C, 96 h, read-out: MHK-Werte Microsporum canis
Experimental: as §1, §2

[7] = tested on: Candida; assay: Antimycotic in-vivo activity (oral) in mouse candidosis; parameters: species or system Mäuse vom Typ SPF-CF₁
Experimental: Mäuse vom Typ SPF-CF₁ werden intravenös mit 1 - 2 x 10⁶ logarithmisch wachsenden Candida-Zellen, die in physiologischer Kochsalzlösung suspendiert werden, infiziert. Eine Stunde vor und sieben Stunden nach der Infektion werden die Tiere mit jeweils 25 - 100 mg/kg Körpergewicht der Präparate oral behandelt.
Unbehandelte Tiere sterben 3 bis 6 Tage post infektionem. Die Überlebensrate am 6.Tag post infektionem beträgt bei unbehandelten Kontrolltieren etwa 5 %.

[8] = mouse candidosis, oral, compared in words with known compounds (A) and (B)

SMILES: Cc1cccc(-c2nc(C(O)(Cn3cncn3)c3ccc(Cl)cc3)cs2)c1 (stereo not drawn) [Verbindung 36]
antimykotische Wirksamkeit [1]: bessere antimykotische Wirksamkeit

MIC [2]: 4 µg/mL (≈ 13.1 µM)
MIC [3]: 15 µg/mL (≈ 49.3 µM)
MIC [4]: 32 µg/mL (≈ 105 µM)
MIC [5]: > 64 µg/mL
SMILES: Cc1nc(C(O)(Cn2cncn2)c2ccc(F)cc2)cs1 (stereo not drawn) [Verbindung 1, 1-(4-Fluorphenyl)-1-(2-methylthiazol-4-yl)-2-(1,2,4-triazol-1-yl)-ethanol]
antimykotische Wirksamkeit [1]: bessere antimykotische Wirksamkeit

MIC [2]: < 1 µg/mL
MIC [3]: < 1 µg/mL
MIC [6]: 16 µg/mL (≈ 40.4 µM)
MIC [4]: 16 µg/mL (≈ 40.4 µM)
MIC [5]: 4 µg/mL (≈ 10.1 µM)
SMILES: Cc1ccc(C(O)(Cn2ccnc2)c2csc(-c3ccc(Cl)cc3)n2)cc1 (stereo not drawn) [Verbindung 3]
antimykotische Wirksamkeit [1]: bessere antimykotische Wirksamkeit

MIC [2]: < 1 µg/mL
MIC [3]: 8 µg/mL (≈ 20.6 µM)
MIC [6]: 64 µg/mL (≈ 165 µM)
MIC [4]: 32 µg/mL (≈ 82.3 µM)
MIC [5]: 16 µg/mL (≈ 41.1 µM)
SMILES: OC(Cn1ccnc1)(c1ccc(Cl)cc1)c1csc(N2CCCCC2)n1 (stereo not drawn) [Verbindung 18]
antimykotische Wirksamkeit [1]: bessere antimykotische Wirksamkeit

SMILES: OC(Cn1ccnc1)(c1ccc(Cl)cc1)c1csc(COc2ccc(Cl)cc2Cl)n1 (stereo not drawn) [Verbindung 25]
antimykotische Wirksamkeit [1]: bessere antimykotische Wirksamkeit

SMILES: OC(Cn1cncn1)(c1ccc(Cl)cc1)c1csc(-c2ccc(Cl)cc2)n1 (stereo not drawn) [Verbindung 21]
Wirkung [7, 8]: bessere Wirkung
antimykotische Wirksamkeit [1]: bessere antimykotische Wirksamkeit

SMILES: OC(Cn1cncn1)(c1ccc(Cl)cc1)c1csc(COc2ccc(Cl)cc2Cl)n1 (stereo not drawn) [Verbindung 26]
antimykotische Wirksamkeit [1]: bessere antimykotische Wirksamkeit

MIC [2]: > 64 µg/mL
MIC [3]: > 64 µg/mL
MIC [4]: > 64 µg/mL
MIC [5]: > 64 µg/mL
SMILES: CC(C)(n1cncn1)C(O)(Cn1ccnc1)c1ccc(F)cc1 (stereo not drawn) [(B), 2-(4-Fluorphenyl)-3-methyl-1-imidazol-1-yl-3-(1,2,4-triazol-1-yl)-butan-2-ol, reference compound]
Wirkung ([7]; mice infected i.v. with 1 - 2 x 10⁶ Candida cells, 25 - 100 mg/kg oral 1 h before and 7 h after infection, survival at day 6 p.i., class symbols, key not readable): k.w.

SMILES: Cc1ccc(C(O)(Cn2cncn2)c2csc(C)n2)cc1 (stereo not drawn) [Verbindung 57]
Wirkung [7, 8]: bessere Wirkung

SMILES: OC(Cn1cncn1)(c1ccc(Cl)cc1)c1csc(-c2ccc(F)cc2)n1 (stereo not drawn) [Verbindung 41]
Wirkung [7, 8]: bessere Wirkung
antimykotische Wirksamkeit [1]: bessere antimykotische Wirksamkeit

SMILES: CN(c1ccccc1)c1nc(C(O)(Cn2cncn2)c2ccc(Cl)cc2)cs1 (stereo not drawn) [Verbindung 43]
antimykotische Wirksamkeit [1]: bessere antimykotische Wirksamkeit

SMILES: Cc1ccccc1-c1nc(C(O)(Cn2cncn2)c2ccc(Cl)cc2)cs1 (stereo not drawn) [Verbindung 52]
antimykotische Wirksamkeit [1]: bessere antimykotische Wirksamkeit

SMILES: OC(Cn1cncn1)(c1ccc(F)cc1)c1csc(-c2ccccc2)n1 (stereo not drawn) [Verbindung 28]
antimykotische Wirksamkeit [1]: bessere antimykotische Wirksamkeit

MIC [2]: < 1 µg/mL
MIC [3]: 2 µg/mL (≈ 5.05 µM)
MIC [6]: 8 µg/mL (≈ 20.2 µM)
MIC [4]: 4 µg/mL (≈ 10.1 µM)
MIC [5]: 2 µg/mL (≈ 5.05 µM)
SMILES: Cc1ccc(-c2nc(C(O)(Cn3ccnc3)c3ccc(Cl)cc3)cs2)cc1 (stereo not drawn) [Verbindung 14]
antimykotische Wirksamkeit [1]: bessere antimykotische Wirksamkeit

SMILES: OC(Cn1ccnc1)(c1ccc(Cl)cc1)c1csc(-c2ccccc2)n1 (stereo not drawn) [Verbindung 62]
antimykotische Wirksamkeit [1]: bessere antimykotische Wirksamkeit

MIC [2]: < 1 µg/mL
MIC [3]: 4 µg/mL (≈ 10.1 µM)
MIC [6]: 8 µg/mL (≈ 20.2 µM)
MIC [4]: 4 µg/mL (≈ 10.1 µM)
MIC [5]: 4 µg/mL (≈ 10.1 µM)
SMILES: Cc1ccc(-c2nc(C(O)(Cn3cncn3)c3ccc(Cl)cc3)cs2)cc1 (stereo not drawn) [Verbindung 15]
antimykotische Wirksamkeit [1]: bessere antimykotische Wirksamkeit

SMILES: OC(Cn1ccnc1)(c1ccc(F)cc1)c1csc(-c2ccc(Cl)cc2)n1 (stereo not drawn) [Verbindung 39]
antimykotische Wirksamkeit [1]: bessere antimykotische Wirksamkeit

SMILES: CCN(CC)c1nc(C(O)(Cn2cncn2)c2ccc(Cl)cc2)cs1 (stereo not drawn) [Verbindung 49]
antimykotische Wirksamkeit [1]: bessere antimykotische Wirksamkeit

SMILES: OC(Cn1cncn1)(c1ccc(Cl)cc1)c1csc(-c2ccc(-n3cncn3)c(Cl)c2)n1 (stereo not drawn) [Verbindung 23]
Wirkung [7, 8]: bessere Wirkung
antimykotische Wirksamkeit [1]: bessere antimykotische Wirksamkeit

SMILES: OC(Cn1cncn1)(c1ccc(Cl)cc1)c1csc(-c2ccc(F)c(Cl)c2)n1 (stereo not drawn) [Verbindung 47]
antimykotische Wirksamkeit [1]: bessere antimykotische Wirksamkeit

SMILES: OC(Cn1ccnc1)(c1ccc(F)cc1)c1csc(-c2ccccc2)n1 (stereo not drawn) [Verbindung 27]
antimykotische Wirksamkeit [1]: bessere antimykotische Wirksamkeit

MIC [2]: 64 µg/mL (≈ 237 µM)
MIC [3]: 64 µg/mL (≈ 237 µM)
MIC [4]: > 64 µg/mL
MIC [5]: > 64 µg/mL
SMILES: OC(Cn1cncn1)(Cn1cncn1)c1ccccc1 [(A), 2-Phenyl-1,3-bis-(1,2,4-triazol-1-yl)-propan-2-ol, reference compound]

SMILES: OC(Cn1cncn1)(c1ccc(Cl)cc1)c1csc(Nc2ccccc2)n1 (stereo not drawn) [Verbindung 45]
antimykotische Wirksamkeit [1]: bessere antimykotische Wirksamkeit

SMILES: OC(Cn1cncn1)(c1ccc(F)cc1)c1csc(-c2ccc(Cl)cc2)n1 (stereo not drawn) [Verbindung 40]
Wirkung [7, 8]: bessere Wirkung
antimykotische Wirksamkeit [1]: bessere antimykotische Wirksamkeit

SMILES: OC(Cn1ccnc1)(c1ccc(Cl)cc1)c1csc(-c2ccc(-n3ccnc3)c(Cl)c2)n1 (stereo not drawn) [Verbindung 22]
Wirkung [7, 8]: bessere Wirkung
antimykotische Wirksamkeit [1]: bessere antimykotische Wirksamkeit

SMILES: OC(Cn1ccnc1)(c1ccc(Cl)cc1)c1csc(-c2ccc(Cl)cc2)n1 (stereo not drawn) [Verbindung 20]
antimykotische Wirksamkeit [1]: bessere antimykotische Wirksamkeit

SMILES: OC(Cn1cncn1)(c1ccc(Cl)cc1)c1csc(-c2ccc(-n3cncn3)cc2)n1 (stereo not drawn) [Verbindung 42]
Wirkung [7, 8]: bessere Wirkung
antimykotische Wirksamkeit [1]: bessere antimykotische Wirksamkeit

SMILES: OC(Cn1cncn1)(c1ccc(F)cc1)c1csc(-c2ccc(F)cc2)n1 (stereo not drawn) [Verbindung 44]
antimykotische Wirksamkeit [1]: bessere antimykotische Wirksamkeit

SMILES: OC(Cn1cncn1)(c1ccc(Cl)cc1)c1csc(-c2ccccc2)n1 (stereo not drawn) [Verbindung 59]
antimykotische Wirksamkeit [1]: bessere antimykotische Wirksamkeit
